Patent publication US8945639B2, “Treatment of inflammatory bowel disease” (Provexis (IBD) Limited, priority 2003, dated 2015)

B1: fetuin: fetuin, glycoconjugate tested at 50 μg/ml (protein, UniProt P12763 19-359, looked up)
Alpha-2-HS-glycoprotein: IPLDPVAGYKEPACDDPDTEQAALAAVDYINKHLPRGYKHTLNQIDSVKVWPRRPTGEVYDIEIDTLETTCHVLDPTPLANCSVRQQTQHAVEGDCDIHVLKQDGQFSVLFTKCDSSPDSAEDVRKLCPDCPLLAPLNDSRVVHAVEVALATFNAESNGSYLQLVEISRAQFVPLPVSVSVEFAVAATDCIAKEVVDPTKCNLLAEKQYGFCKGSVIQKALGGEDVRVTCTLFQTQPVIPQPQPDGAEAEAPSAVPDAAGPTPSAAGPPVASVVVGPSVVAVPLPLHRAHYDLRHTFSGVASVESSSGEAFHVGKTPIVGQPSIPGGPVRLCPGRIRYFKI
B2: asialofetuin: asialofetuin, glycoconjugate tested at 50 μg/ml (protein, UniProt P12763 19-359, looked up)
Alpha-2-HS-glycoprotein: IPLDPVAGYKEPACDDPDTEQAALAAVDYINKHLPRGYKHTLNQIDSVKVWPRRPTGEVYDIEIDTLETTCHVLDPTPLANCSVRQQTQHAVEGDCDIHVLKQDGQFSVLFTKCDSSPDSAEDVRKLCPDCPLLAPLNDSRVVHAVEVALATFNAESNGSYLQLVEISRAQFVPLPVSVSVEFAVAATDCIAKEVVDPTKCNLLAEKQYGFCKGSVIQKALGGEDVRVTCTLFQTQPVIPQPQPDGAEAEAPSAVPDAAGPTPSAAGPPVASVVVGPSVVAVPLPLHRAHYDLRHTFSGVASVESSSGEAFHVGKTPIVGQPSIPGGPVRLCPGRIRYFKI
modifications: desialylated
notes: asialofetuin, glycoconjugate tested at 50 μg/ml

What follows are molecules tested on agglutinating mucosally-associated E. coli (haemagglutination of human red blood cells) (assay: Haemagglutination assays with different oligosaccharides/fibres (Example 1)). Settings: agglutinating E. coli from IBD subjects, 'in all cases', mannose, fucose, galactose 0.4M, fetuin, asialofetuin 50 μg/ml.
Assay type: cell-based
Procedure: Blood was taken from a healthy human volunteer and placed into a heparinised container. The blood was washed three times in PBS by centrifugation at 1000 rpm for 5 minutes and by resuspending the pellet in fresh PBS. After the third wash, the pellet was resuspended in PBS so as to give a 1% red blood cell solution. Bacteria identified as E. coli, and 5 strains of CD-ileal associated E. coli were grown so as to obtain maximum fimbrial expression (see above). Bacteria were suspended in saline to give an OD equal to MacFarland standard 5. Doubling dilutions of bacterial suspension were performed in 96 well U-bottomed haemagglutination plates (Dynex technologies) to a final volume of 100 μl per well. 50 μl of 1% rbcs was added to each well. The plate was tapped gently to mix the contents of the wells and was left at room temperature for approximately 2 hrs.
Further characterisation of bacterial haemagglutination was carried out using a panel of oligosaccharides/fibers. The structures tested were: mannose (0.4M), fucose (0.4M), galactose (0.4M), fetuin (50 μg/ml), asialofetuin (50 μg/ml), bovine submaxillary mucin (BSM), hydrolysed BSM, ovine submaxilliary mucin (OSM), lactose, lactulose, siayl Tn, GalGalNAc, N-Glycolyneuraminic acid, N-acetylneuraminic acid, 3′-n-acetylneuraminyl-lactose, 6′-n-acetylneuraminyl-lactose, melibiose, plantain, stachyose, milk derived galacto-oligosaccharide, raffinose, pectin, polygalacturonic acid, and paralacto-n-hexaose.
Soluble fiber (prepared according to 1.1.12.2) and other carbohydrates were tested for their ability to modulate agglutination, attachment and invasion of cells from subjects with IBD.
For OC[C@H]1O[C@@H](O[C@@H]2[C@@H](CO)OC(O)(CO)[C@H]2O)[C@H](O)[C@@H](O)[C@H]1O (mixture of isomers) [lactulose], the inhibition of agglutination was “non-inhibitory”.
For CC(=O)N[C@H]1[C@H]([C@H](O)[C@H](O)CO)O[C@@](O[C@H]2[C@@H](O)[C@@H](CO)O[C@@H](O[C@H]3[C@H](O)[C@@H](O)C(O)O[C@@H]3CO)[C@@H]2O)(C(=O)O)C[C@@H]1O (stereo partly shown) [3′-n-acetylneuraminyl-lactose], the inhibition of agglutination was “non-inhibitory”.
CC(=O)NC1C(O)CC(OCC2OC(OC3C(CO)OC(O)C(O)C3O)C(O)C(O)C2O)(C(=O)O)OC1C(O)C(O)CO (stereo not shown) [6′-n-acetylneuraminyl-lactose] was tested, and the inhibition of agglutination was “non-inhibitory”.
In the case of CC(=O)N[C@H]1C(O)O[C@H](CO)[C@H](O)[C@@H]1O[C@@H]1O[C@H](CO)[C@H](O)[C@H](O)[C@H]1O (stereo partly shown) [Galβ1-3GalNAc], the inhibition of agglutination is reported as “non-inhibitory”.
For CC(=O)N[C@H]1[C@H]([C@H](O)[C@H](O)CO)OC(O)(C(=O)O)C[C@@H]1O (stereo partly shown) [N-acetylneuraminic acid], the inhibition of agglutination was “non-inhibitory”.
In the case of O=C(CO)N[C@H]1[C@H]([C@H](O)[C@H](O)CO)OC(O)(C(=O)O)C[C@@H]1O (stereo partly shown) [N-glycolyneuraminic acid], the inhibition of agglutination is reported as “non-inhibitory”.
C[C@H](O)[C@@H](O)[C@@H](O)[C@H](O)C=O [fucose] was tested, and the inhibition of agglutination was “non-inhibitory”.
In the case of O=C[C@H](O)[C@@H](O)[C@@H](O)[C@H](O)CO [galactose], the inhibition of agglutination is reported as “non-inhibitory”.
For OC[C@H]1O[C@@H](O[C@H]2[C@H](O)[C@@H](O)C(O)O[C@@H]2CO)[C@H](O)[C@@H](O)[C@H]1O (stereo partly shown) [lactose], the inhibition of agglutination was “non-inhibitory”.
With OC[C@H]1O[C@H](OCC2O[C@@H](O)[C@H](O)[C@@H](O)[C@@H]2O)[C@H](O)[C@@H](O)[C@H]1O (stereo partly shown) [melibiose] the inhibition of agglutination was “non-inhibitory”.
OC[C@H]1O[C@H](OC[C@H]2O[C@H](O[C@]3(CO)O[C@H](CO)[C@@H](O)[C@@H]3O)[C@H](O)[C@@H](O)[C@@H]2O)[C@H](O)[C@@H](O)[C@H]1O [raffinose] was tested, and the inhibition of agglutination was “non-inhibitory”.
With OC[C@H]1O[C@H](OC[C@H]2O[C@H](OC[C@H]3O[C@H](O[C@]4(CO)O[C@H](CO)[C@@H](O)[C@@H]4O)[C@H](O)[C@@H](O)[C@@H]3O)[C@H](O)[C@@H](O)[C@H]2O)[C@H](O)[C@@H](O)[C@H]1O [stachyose] the inhibition of agglutination was “non-inhibitory”.
For bovine submaxillary mucin, the inhibition of agglutination was “inhibited”.
In the case of paralacto-n-hexaose, the inhibition of agglutination is reported as “non-inhibitory”.
In the case of pectin, the inhibition of agglutination is reported as “non-inhibitory”.
For polygalacturonic acid, the inhibition of agglutination was “non-inhibitory”.
siaylosyl-Tn was tested, and the inhibition of agglutination was “non-inhibitory”.
For B1, the inhibition of agglutination was “non-inhibitory”.
With B2 the inhibition of agglutination was “non-inhibitory”.
